{"source": "patent US10426842B2", "about": "“Targeted nanoparticle conjugate and method for co-delivery of siRNA and drug” (The Curators of the University of Missouri, priority 2015, dated 2019)", "key": {"[1]": {"tested_on": "NT5E (CD73) gene expression in H23 cells", "assay": "Quantitative real-time RT-PCR of NT5E (CD73)", "type": "cell-based, human", "conditions": "relative to untreated, 18sRNA reference", "description": "(§1) The effect of the oncogene knockdown on gene expression of DUSP6 and NT5E genes were observed by quantitative real-time RT-PCR. Initially H23 cells (1×10^6 cells/well) were treated with 4 samples including untreated, GelNP-Ab, GelNP-Ab-siRNA and siRNA (transfection agent). RNA was extracted through standard RNA extraction protocol. cDNA was synthesized from RNA extracted from the treated cells. The quality and the concentration of the extracted RNA was determined using bioanalyzer. 18sRNA was used as an reference gene (housekeeping gene) for data normalization. Primers and probes for all genes were purchased from Integrated DNA Technologies (IDT). PCR was performed in a reaction volume of 20 μl containing 2 μl cDNA using the Gene Amp 7700 Sequence Detection System. The comparative Ct protocol was followed to determine the relative expression levels."}, "[2]": {"tested_on": "SHP2, pSHP2 (Y542), pSHP2 (Y580) in KRAS mutated H23 cells", "assay": "Western blot and densitometry for SHP2 and phospho-SHP2", "description": "The Western blot analysis was performed as follows. Cells were seeded at a density of 1×10^6 cells/ml and incubated for overnight at 37° C. in 5% CO2 atmosphere. Nanoparticle and relevant control samples were incubated in serum free media for the period of 72 hrs. […] Whole-cell lysates were prepared using Triton X 100 lysis buffer with MS-SAFE protease and phosphatase cocktail inhibitor (Sigma-Aldrich) and the protein concentration was equalized by Bicinchoninic acid assay (Sigma-Aldrich).\nMembranes were incubated with primary antibody overnight, were washed and incubated with secondary antibody. Primary antibodies used for western blotting are rabbit polyclonal anti-β-actin, rabbit monoclonal anti-AKT, rabbit monoclonal anti-phospho-AKT, rabbit polyclonal anti-MEK1/2, rabbit polyclonal anti-phospho-MEK1/2, rabbit monoclonal anti-EGFR, rabbit monoclonal anti-phospho-EGFR, rabbit monoclonal anti-SHP2, rabbit polyclonal anti-phospho-SHP2 (Tyr542), rabbit polyclonal anti-phospho-SHP2 (Tyr580), rabbit monoclonal anti-phospho-GAB1 (Tyr627), rabbit polyclonal anti-phospho-GAB1 (Tyr307), all from Cell Signaling and mouse monoclonal anti-KRAS from Santa Cruz Biotech. […] Protein expression levels were quantified by densitometry analysis."}, "[3]": {"tested_on": "DUSP6 gene expression in H23 cells", "assay": "Quantitative real-time RT-PCR of DUSP6", "type": "cell-based, human", "conditions": "relative to untreated, 18sRNA reference", "description": "In this inquiry, quantitative real time PCR was performed to examine dual specificity phosphatase 6 (DUSP6) and CD73 gene expression levels.\nas §1"}, "[4]": {"tested_on": "H23 human adenocarcinoma non-small cell lung cancer cells", "method": "Considering downregulation of downstream-phosphorylated proteins, the cell viability of H23 cells (MTT assay) after knocking down the RAS pathway was then investigated.\n(Thermo Scientific, USA). For determining in vitro cytotoxicity, the MTT assay was performed by incubating various samples including the nanoparticle of interest on H23 and A549 cells.\nEach sample was analyzed in triplicate. After 24 hours of incubation, 10 μl of MTT solution (ATCC, USA) was added and the plate was incubated at 37° C. for 4 hours. Crystals formed were dissolved in 100 μl solubilizing buffer and the plates were kept at 25° C. for 2 hours. The intensity of the color developed after addition of the solubilizing buffer was measured using Biotek Cytation 3 spectrophotometer at 570 nm.\nViability of the cells transfected with various samples was then calculated by considering the untreated cells as 100% viable."}}}
{"substance": "transfected siRNA: KRAS G12C siRNA (SEQ ID NO. 1 annealed with SEQ ID NO. 2) delivered with transfecting agent (sense GUUGGAGCUUGUGGCGUAGUUUU; antisense AACUACGCCACAAGCUCCAACUU; disulfide moiety, further chemistry not given here)", "values": [{"measurement": "CD73 (NT5E) RF value (real time qPCR)", "setting": "[1]", "value": 1.07}, {"measurement": "SHP2, pSHP2 (Y542) and pSHP2 (Y580) level", "setting": "[2]; in the presence of gefitinib", "value": "significant downregulation"}, {"measurement": "SHP2, pSHP2 (Y542) and pSHP2 (Y580) level", "setting": "[2]; without gefitinib", "value": "did not show any effect"}, {"measurement": "RF value of DUSP6 (real time qPCR)", "setting": "[3]", "value": 0.1}, {"measurement": "cytotoxicity / change in viability (in words)", "setting": "[4]", "value": "no toxicity"}, {"measurement": "cell survival post RAS oncogene knockdown", "setting": "[4]; H23 cells, without gefitinib", "value": 100, "unit": "%"}]}
